Assays:
Format in all cases: in vivo
[1] = system: redroot pigweed (Amaranthus retroflexus); test: Test G Pre-Emergence Protocol; conditions: Amaranthus retroflexus, pre-emergence, 312 h, evaluated after 13 days
Method in brief: (§1)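 Herbicidal effect was rated 13 days post-application on a scale where 100 equals total damage. Spraying took place the day after sowing, using 15.625, 62.5 or 250 g/ha of compound in a 50:50 acetone/water solution with 0.5% Tween 20.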

[2] = system: corn (Zea mays); test: Test G Pre-Emergence Protocol; conditions: Zea mays, pre-emergence, 312 h, evaluated after 13 days
Method in brief: as §1

[3] = system: barnyardgrass (Echinochloa crus-galli); test: Test G Pre-Emergence Protocol; conditions: Echinochloa crus-galli, pre-emergence, 312 h, evaluated after 13 days
Method in brief: as §1

[4] = system: ivy-leaved morning glory (Ipomoea hederacea); test: Test G Pre-Emergence Protocol; conditions: Ipomoea, pre-emergence, 312 h, evaluated after 13 days
Method in brief: as §1

[5] = system: giant foxtail (Setaria faberi); test: Test G Pre-Emergence Protocol; conditions: Setaria faberi, pre-emergence, 312 h, evaluated after 13 days
Method in brief: as §1

[6] = system: velvetleaf (Abutilon theophrasti); test: Test G Pre-Emergence Protocol; conditions: Abutilon theophrasti, pre-emergence, 312 h, evaluated after 13 days
Method in brief: as §1

[7] = system: redroot pigweed (Amaranthus retroflexus); test: Test G Post-Emergence Protocol; conditions: Amaranthus retroflexus, post-emergence, 312 h
Method in brief: (§2)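 Damage was rated 13 days after treatment from 0 (none) to 100 (plant killed). Compound was applied as a spray at 15.625, 62.5 or 250 g/ha in 50:50 acetone/water containing 0.5% Tween 20, onto 8-day-old potted plants kept in a glasshouse (24/16 °C, 14 h light, 65% humidity).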

[8] = system: corn (Zea mays); test: Test G Post-Emergence Protocol; conditions: Zea mays, post-emergence, 312 h
Method in brief: as §2

[9] = system: barnyardgrass (Echinochloa crus-galli); test: Test G Post-Emergence Protocol; conditions: Echinochloa crus-galli, post-emergence, 312 h
Method in brief: as §2

[10] = system: ivy-leaved morning glory (Ipomoea hederacea); test: Test G Post-Emergence Protocol; conditions: Ipomoea, post-emergence, 312 h
Method in brief: as §2

[11] = system: giant foxtail (Setaria faberi); test: Test G Post-Emergence Protocol; conditions: Setaria faberi, post-emergence, 312 h
Method in brief: as §2

[12] = system: velvetleaf (Abutilon theophrasti); test: Test G Post-Emergence Protocol; conditions: Abutilon theophrasti, post-emergence, 312 h
Method in brief: as §2

In the case of `Cc1c(Cl)ccc([C@@H]2CN(C)C(=O)[C@H]2C(=O)Nc2cccc(F)c2F)c1F` (racemic) [Compound 1473], the pest or weed control at 15.625 g/ha ([1]; 15.625 g ai/ha, read-out: Pigweed, Redroot damage rating (100=total damage to plant; 0=no damage to plant)) is reported as 0%, the pest or weed control at 62.5 g/ha ([1]; 62.5 g ai/ha, 100=total damage to plant, 0=no damage to plant, read-out: plant damage rating, Pigweed, Redroot) is reported as 0% and the pest or weed control at 250 g/ha ([1]; 250 g ai/ha, read-out: Pigweed, Redroot damage rating (100=total damage to plant; 0=no damage to plant)) is reported as 70%. The plant injury at 15.625 g/ha ([2]; 15.625 g ai/ha, read-out: Corn damage rating (100=total damage to plant; 0=no damage to plant)) was 0%, the plant injury at 62.5 g/ha ([2]; 62.5 g ai/ha, 100=total damage to plant, 0=no damage to plant, read-out: plant damage rating, Corn) was 0% and the plant injury at 250 g/ha ([2]; 250 g ai/ha, read-out: Corn damage rating (100=total damage to plant; 0=no damage to plant)) was 10%. For the same compound, the pest or weed control at 15.625 g/ha ([3]; 15.625 g ai/ha, read-out: Barnyard grass damage rating (100=total damage to plant; 0=no damage to plant)) was 20%, the pest or weed control at 62.5 g/ha ([3]; 62.5 g ai/ha, 100=total damage to plant, 0=no damage to plant, read-out: plant damage rating, Barnyardgrass) was 40% and the pest or weed control at 250 g/ha ([3]; 250 g ai/ha, read-out: Barnyardgrass damage rating (100=total damage to plant; 0=no damage to plant)) was 70%. For the same compound, the pest or weed control at 15.625 g/ha ([4]; 15.625 g ai/ha, read-out: Morning-glory, Ivy-leaved damage rating (100=total damage to plant; 0=no damage to plant)) was 10%, the pest or weed control at 62.5 g/ha ([4]; 62.5 g ai/ha, 100=total damage to plant, 0=no damage to plant, read-out: plant damage rating, Morningglory, Ivy-leaved) was 0% and the pest or weed control at 250 g/ha ([4]; 250 g ai/ha, read-out: Morningglory, Ivy-leaved damage rating (100=total damage to plant; 0=no damage to plant)) was 10%. It also gave a pest or weed control at 15.625 g/ha ([5]; 15.625 g ai/ha, read-out: Foxtail, Giant damage rating (100=total damage to plant; 0=no damage to plant)) of 50%, a pest or weed control at 62.5 g/ha ([5]; 62.5 g ai/ha, 100=total damage to plant, 0=no damage to plant, read-out: plant damage rating, Foxtail, Giant) of 70% and a pest or weed control at 250 g/ha ([5]; 250 g ai/ha, read-out: Foxtail, Giant damage rating (100=total damage to plant; 0=no damage to plant)) of 80%. For the same compound, the pest or weed control at 15.625 g/ha ([6]; 15.625 g ai/ha, read-out: Velvetleaf damage rating (100=total damage to plant; 0=no damage to plant)) was 0%, the pest or weed control at 62.5 g/ha ([6]; 62.5 g ai/ha, 100=total damage to plant, 0=no damage to plant, read-out: plant damage rating, Velvetleaf) was 0% and the pest or weed control at 250 g/ha ([6]; 250 g ai/ha, read-out: Velvetleaf damage rating (100=total damage to plant; 0=no damage to plant)) was 0%. For the same compound, the pest or weed control at 15.625 g/ha ([7]; 15.625 g ai/ha, evaluated after 13 days (100=total damage to plant; 0=no damage to plant), read-out: Pigweed, Redroot damage rating) was 0%, the pest or weed control at 62.5 g/ha ([7]; 62.5 g ai/ha, evaluated after 13 days, read-out: Pigweed, Redroot damage rating (100=total damage to plant; 0=no damage to plant)) was 0% and the pest or weed control at 250 g/ha ([7]; 250 g ai/ha, evaluated after 13 days, read-out: damage to plant, Pigweed, Redroot (100=total damage to plant; 0=no damage to plant)) was 10%. For the same compound, the plant injury at 15.625 g/ha ([8]; 15.625 g ai/ha, evaluated after 13 days (100=total damage to plant; 0=no damage to plant), read-out: Corn damage rating) was 20%, the plant injury at 62.5 g/ha ([8]; 62.5 g ai/ha, evaluated after 13 days, read-out: Corn damage rating (100=total damage to plant; 0=no damage to plant)) was 10% and the plant injury at 250 g/ha ([8]; 250 g ai/ha, evaluated after 13 days, read-out: damage to plant, Corn (100=total damage to plant; 0=no damage to plant)) was 10%. For the same compound, the pest or weed control at 15.625 g/ha ([9]; 15.625 g ai/ha, evaluated after 13 days (100=total damage to plant; 0=no damage to plant), read-out: Barnyardgrass damage rating) was 40%, the pest or weed control at 62.5 g/ha ([9]; 62.5 g ai/ha, evaluated after 13 days, read-out: Barnyardgrass damage rating (100=total damage to plant; 0=no damage to plant)) was 40% and the pest or weed control at 250 g/ha ([9]; 250 g ai/ha, evaluated after 13 days, read-out: damage to plant, Barnyardgrass (100=total damage to plant; 0=no damage to plant)) was 50%. The pest or weed control at 15.625 g/ha ([10]; 15.625 g ai/ha, evaluated after 13 days (100=total damage to plant; 0=no damage to plant), read-out: Morningglory, Ivy-leaved damage rating) was 0%, the pest or weed control at 62.5 g/ha ([10]; 62.5 g ai/ha, evaluated after 13 days, read-out: Morningglory, Ivy-leaved damage rating (100=total damage to plant; 0=no damage to plant)) was 10% and the pest or weed control at 250 g/ha ([10]; 250 g ai/ha, evaluated after 13 days, read-out: damage to plant, Morningglory, Ivy-leaved (100=total damage to plant; 0=no damage to plant)) was 20%. For the same compound, the pest or weed control at 15.625 g/ha ([11]; 15.625 g ai/ha, evaluated after 13 days (100=total damage to plant; 0=no damage to plant), read-out: Foxtail, Giant damage rating) was 60%, the pest or weed control at 62.5 g/ha ([11]; 62.5 g ai/ha, evaluated after 13 days, read-out: Foxtail, Giant damage rating (100=total damage to plant; 0=no damage to plant)) was 70% and the pest or weed control at 250 g/ha ([11]; 250 g ai/ha, evaluated after 13 days, read-out: damage to plant, Foxtail, Giant (100=total damage to plant; 0=no damage to plant)) was 70%. For the same compound, the pest or weed control at 15.625 g/ha ([12]; 15.625 g ai/ha, evaluated after 13 days (100=total damage to plant; 0=no damage to plant), read-out: Velvetleaf damage rating) was 0%, the pest or weed control at 62.5 g/ha ([12]; 62.5 g ai/ha, evaluated after 13 days, read-out: Velvetleaf damage rating (100=total damage to plant; 0=no damage to plant)) was 0% and the pest or weed control at 250 g/ha ([12]; 250 g ai/ha, evaluated after 13 days, read-out: damage to plant, Velvetleaf (100=total damage to plant; 0=no damage to plant)) was 10%.

From patent US12077503B2, “Substituted cyclic amides and their use as herbicides” (FMC CORPORATION, priority 2015, dated 2024)
